Assay results as given in patent US20260016473A1 (priority 2022, published 2026).

How the values were obtained:
SARS-CoV2 Spike S1 = biological target: T1, SARS-CoV2 Spike S1 (Severe acute respiratory syndrome coronavirus 2, UniProt P0DTC2); type: biochemical, SARS-CoV-2
T1 construct: SARS-CoV2 Spike S1 (Product number: 40591-V08); purchased Sino Biological, Inc. 40591-V08

SARS-CoV2 Spike S2 = biological target: T2, SARS-CoV2 Spike S2 (Severe acute respiratory syndrome coronavirus 2, UniProt P0DTC2); type: biochemical, SARS-CoV-2
T2 construct: SARS-CoV2 Spike S2 (Product number: 40590-V08H1); purchased Sino Biological, Inc. 40590-V08H1

SARS-CoV2 Spike RBD = biological target: T3, SARS-CoV2 Spike RBD (Severe acute respiratory syndrome coronavirus 2, UniProt P0DTC2); type: biochemical, SARS-CoV-2
T3 construct: purchased Sino Biological, Inc. 40592-V08H

SARS-CoV Spike S1 = SARS-CoV Spike S1 (Severe acute respiratory syndrome coronavirus, UniProt P59594); type: biochemical
MERS-CoV Spike S1 = MERS-CoV Spike S1 (Middle East respiratory syndrome-related coronavirus, UniProt K9N5Q8); type: biochemical
human serum-derived IgA = type: biochemical
[1] = tested on: α-amylase, Lactoferrin, Lysozyme, Mucin, EGF, IgA; type: biochemical

Sequence of MERS-CoV Spike S1 (K9N5Q8 18-751 limits assumed): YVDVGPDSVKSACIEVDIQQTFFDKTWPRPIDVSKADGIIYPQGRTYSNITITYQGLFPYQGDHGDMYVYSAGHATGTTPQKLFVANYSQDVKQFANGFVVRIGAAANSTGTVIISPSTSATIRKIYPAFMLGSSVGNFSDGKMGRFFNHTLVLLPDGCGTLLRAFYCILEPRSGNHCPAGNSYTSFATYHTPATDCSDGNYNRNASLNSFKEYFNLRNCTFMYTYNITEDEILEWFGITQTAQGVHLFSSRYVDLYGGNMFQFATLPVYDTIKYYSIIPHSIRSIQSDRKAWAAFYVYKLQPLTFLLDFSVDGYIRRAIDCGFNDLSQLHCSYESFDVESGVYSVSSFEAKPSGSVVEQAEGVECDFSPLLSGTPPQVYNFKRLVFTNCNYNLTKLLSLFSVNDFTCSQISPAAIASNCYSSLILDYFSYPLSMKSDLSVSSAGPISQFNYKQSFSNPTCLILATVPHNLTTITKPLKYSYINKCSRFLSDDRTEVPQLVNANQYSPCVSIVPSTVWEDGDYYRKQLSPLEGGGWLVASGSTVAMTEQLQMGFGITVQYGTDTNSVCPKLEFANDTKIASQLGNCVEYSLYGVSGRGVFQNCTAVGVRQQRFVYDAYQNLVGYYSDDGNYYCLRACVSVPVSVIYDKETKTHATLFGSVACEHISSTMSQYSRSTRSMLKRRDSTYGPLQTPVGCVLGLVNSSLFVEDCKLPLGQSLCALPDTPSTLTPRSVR

`CCC(C)c1nc2c(CCCNC(=N)N)[nH]c(-c3c[nH]c4ccccc34)cn-2c1=O` (centres unmarked) [Cypridina Luciferin] was tested, and the “luminescent reaction at S1” value (SARS-CoV2 Spike S1) was “caused a luminescent reaction”, the “reaction with spike protein of SARS-CoV-2” value (SARS-CoV2 Spike S1) was “reacted” and the “luminescent reaction at S2” value (SARS-CoV2 Spike S2) was “caused a luminescent reaction”. The “luminescent reaction at the RBD domain” value (SARS-CoV2 Spike RBD) was “did not cause a reaction at the PBD domain at all”, the “reaction with spike protein of SARS-CoV” value (SARS-CoV Spike S1) was “reacted” and the “reaction with the protein of MERS-CoV” value (MERS-CoV Spike S1) was “did not react”. The “luminescent reaction with immunoglobulin protein IgA” value (human serum-derived IgA) was “did not cause a luminescent reaction” and the “luminescent reaction with various proteins” value [1] was “did not cause a luminescent reaction”.
